From patent publication US7326689B2, “Pseudomycins useful against plant diseases” (Eli Lilly and Company, priority 2000, dated 2008)

Columns and labels:
Experiment in all cases: Antifungal growth assay in potato dextrose broth, 24-well
Assay type in all cases: cell-based
[1] = test system: Monilinia sp.; conditions: 2x assays
Method: (§1) Fungi to be tested were propagated on potato dextrose agar (PDA) plates at room temperature. Stock solutions of pseudomycins and depsipeptide were suspended in dimethylsulfoxide (DMSO) (Sigma) at 5 mg/ml and stored at −20C. Serial dilutions of compounds were done the day of the experiment. All serial dilutions were made in DMSO. […] These are noted in the raw data section.
(§2) Assays were performed in 24-well cell culture clusters (Costar 3524), with 990 ul potato dextrose broth (PDB, Difco) and 10 ul of the compound to be tested in each well. Initial concentrations tested were 50-1.56 ug/ml (final concentration of pseudomycin). Actual concentrations of pseudomycins tested were 50, 25, 12.5, 6.25, 3.12 and 1.56 ug/ml. Each well was inoculated with the appropriate fungus. Unless noted, the fungal inoculum consisted of an ˜4 mm^2 piece of PDA with fungal mycelium. The exceptions were as follows. Ustilago maydis: this fungus grows much like a yeast on PDA, and cells were scraped from the PDA stock plate, resuspended in PDB and 10 ul inoculum added to each well. Monilinia sp.: this fungal mycelium grows as a very loose sheet on top of PDA and would not adhere to agar blocks. Fungal mycelium was ground with a metal rod in 500 ul PDB and 10 ul inoculum was added to each well. Mycosphaeella fijiensis, Septoria passerinii, Septoria triticii: these fungi all grow very slowly and the results were difficult to score if a small piece of agar with fungal mycelium on it was used as an inoculum. For these fungi, the mycelium was ground with a metal rod in 500 ul PDB and 10 ul inoculum was added to each well.
(§3) Wells were scored for fungal growth at two days and five days. Some slow growing fungi were scored at later days for growth because assessment was not possible at two or five days. Growth was scored by comparison to a control consisting of fungus inoculated into 990 ul potato dextrose broth and 10 ul of DMSO (Dimethylsulfoxide). An additional control consisting of fungal inoculum in PDB only was performed to ensure that the DMSO was not inhibitory to fungal growth.
(§4) For assays that were repeated, new stock solutions were made from a second shipment of pseudomycins. Note that pseudomycin B′ and depsipeptide stock solutions were remade from first shipment materials because these were not included in the second shipment. […] Actual concentrations of pseudomycins tested were 2, 1, 0.5, 0.25, 0.125 and 0.0625 ug/ml. A-PO4 and A-FB=pseudomycin A phosphate salt and free base respectively.
(§5) Table 2: Two day results—concentration indicated is lowest level of compound (ug /ml) that results is no growth. NI, no inhibition; p (partial), at least 50% inhibited; -, not determined. If number of assays was greater than one, number of assays performed on the fungus is noted in parentheses. For several slow-growing fungi, days elapsed before observation (if different than two) are noted.
(§6) Table 3: Five day results—concentration indicated is lowest level of compound (ug /ml) that results in no growth. NI, no inhibition; p (partial), at least 50% inhibited; -, not performed on the fungus is noted in parentheses. For several slow-growing fungi, days elapsed before observation (if different than five) are noted.

[2] = test system: Ustilago maydis; conditions: 3x assays
Method: as §1, §2, §3, §4, §5, §6

[3] = test system: Septoria passerinii; conditions: 3x assays
Method: as §1, §2, §3, §4, §5, §6

[4] = test system: Drechslera portulacae; conditions: 3x assays
Method: as §1, §2, §3, §4, §5, §6

[5] = test system: Mycosphaeella fijiensis (Sigatoka); conditions: 3x assays
Method: as §1, §2, §3, §4, §5, §6

[6] = test system: Rhizoctonia solani; conditions: 2x assays
Method: as §1, §2, §3, §4, §5, §6

[7] = test system: Septoria tritici; conditions: 3x assays
Method: as §1, §2, §3, §4, §5, §6

[8] = test system: Penicillium roqueforti; conditions: 3x assays
Method: as §1, §2, §3, §4, §5, §6

[9] = test system: Mycosphaeella fijiensis (8088/88); conditions: 3x assays
Method: as §1, §2, §3, §4, §5, §6

[10] = test system: Geotrichim candidum; conditions: 3x assays
Method: as §1, §2, §3, §4, §5, §6

[11] = test system: Drechslera tritici-repentis; parameters: key: NI, no inhibition; p (partial), at least 50% inhibited
Method in brief: (§7)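 Compounds were serially diluted in DMSO and tested at final concentrations of 50–1.56 ug/ml (2–0.0625 ug/ml in repeat runs) in potato dextrose broth inoculated with a ~4 mm^2 PDA mycelium plug. M. fijiensis received ground mycelium suspended in PDB instead. The value is the lowest concentration with no growth at 2 and 5 days.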

[12] = test system: Fusarium avenaceum; parameters: key: NI, no inhibition; p (partial), at least 50% inhibited
Method in brief: as §7

[13] = test system: Pestalotiopsis microspora NE-32; parameters: key: NI, no inhibition; p (partial), at least 50% inhibited
Method in brief: as §7

[14] = test system: Diplodia natalensis; parameters: key: NI, no inhibition; p (partial), at least 50% inhibited
Method in brief: as §7

[15] = test system: Cochliobolus carbonum; parameters: key: NI, no inhibition; p (partial), at least 50% inhibited
Method in brief: as §7

[16] = Table 2 (two day results), observed at 7 day
[17] = Table 3 (five day results), observed at 21 days

| Substance | lowest level of compound that results in no growth ([1]; five day results) [µg/mL] | lowest level of compound that results in no growth ([1]; two day results) [µg/mL] | lowest level of compound that results in no growth ([2]; five day results) [µg/mL] | lowest level of compound that results in no growth ([2]; two day results) [µg/mL] | lowest level of compound that results in no growth ([3]; five day results) [µg/mL] | lowest level of compound that results in no growth ([3]; two day results) [µg/mL] | lowest level of compound that results in no growth ([4]; two day results) [µg/mL] | lowest level of compound that results in no growth [5, 16] [µg/mL] | lowest level of compound that results in no growth [5, 17] [µg/mL] | lowest level of compound that results in no growth ([6]; five day results) [µg/mL] | lowest level of compound that results in no growth ([6]; two day results) [µg/mL] | lowest level of compound that results in no growth ([7]; five day results) [µg/mL] | lowest level of compound that results in no growth ([7]; two day results) [µg/mL] | lowest level of compound that results in no growth ([8]; five day results) [µg/mL] | lowest level of compound that results in no growth ([8]; two day results) [µg/mL] | lowest level of compound that results in no growth [9, 16] [µg/mL] | lowest level of compound that results in no growth [9, 17] [µg/mL] | lowest level of compound that results in no growth ([10]; five day results) [µg/mL] | lowest level of compound that results in no growth ([10]; two day results) [µg/mL] | lowest level of compound that results in no growth ([11]; five day results) | other results |
| --- | --- | --- | --- | --- | --- | --- | --- | --- | --- | --- | --- | --- | --- | --- | --- | --- | --- | --- | --- | --- | --- |
| pseudomycin A-FB | 12.5 | 6.25 | 1 | 1 | 0.06 | 0.06 | 0.25 | 0.5 | 1 | 50 | 6.25 | 0.25 | 0.25 | 3.12 | 1 | 0.25 | 0.25 | 6.25 | 3.12 | NI | lowest level of compound that results in no growth ([3]; five day results, listed as pseudomycin A (free base)): 0.0625 µg/mL; lowest level of compound that results in no growth ([4]; Table 3 (five day results), observed at 9 day): 0.25 µg/mL; lowest level of compound that results in no growth ([11]; two day results, 2x assays): 25 µg/mL; lowest level of compound that results in no growth ([12]; five day results): NI; lowest level of compound that results in no growth ([12]; two day results): NI; lowest level of compound that results in no growth ([13]; five day results): NI; lowest level of compound that results in no growth ([13]; two day results): p at 50; lowest level of compound that results in no growth ([14]; five day results): NI; lowest level of compound that results in no growth ([14]; two day results): NI; lowest level of compound that results in no growth ([15]; five day results): NI; lowest level of compound that results in no growth ([15]; two day results): NI |
| pseudomycin A-PO4 | 12.5 | 12.5 | 1 | 0.5 | 0.12 | 0.125 | 0.06 | 1 | 1 | 12.5 | 6.25 | 0.25 | 0.25 | 3.12 | 0.5 | 0.12 | 0.25 | 6.25 | 12.5 | p at 50 | lowest level of compound that results in no growth ([4]; Table 3 (five day results), observed at 9 day, listed as A-PO4): 0.06 µg/mL; lowest level of compound that results in no growth ([4]; Table 3 (five day results), observed at 9 day, listed as pseudomycin A (PO4)): 0.0625 µg/mL; lowest level of compound that results in no growth ([11]; two day results, 2x assays): 50 µg/mL; lowest level of compound that results in no growth ([12]; five day results): NI; lowest level of compound that results in no growth ([12]; two day results): NI; lowest level of compound that results in no growth ([13]; five day results): NI; lowest level of compound that results in no growth ([13]; two day results): p at 50; lowest level of compound that results in no growth ([14]; five day results): NI; lowest level of compound that results in no growth ([14]; two day results): NI; lowest level of compound that results in no growth ([15]; five day results): NI; lowest level of compound that results in no growth ([15]; two day results): NI |
